Reference: ChEMBL document CHEMBL1909046, “DrugMatrix in vitro pharmacology data”
pIC50, pKi: −log10 of the molar value.

Legend:
[1] = molecular target: T1, Cathepsin G (Homo sapiens, UniProt P08311); type: tissue-based; settings: neutrophil;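 note: inhibition of Cathepsin G enzyme activity, tested on an AMC-conjugated peptide substrate; in other assays of this panel Not Active means under 50% inhibition at 10 µM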
T1 sequence (P08311 whole entry): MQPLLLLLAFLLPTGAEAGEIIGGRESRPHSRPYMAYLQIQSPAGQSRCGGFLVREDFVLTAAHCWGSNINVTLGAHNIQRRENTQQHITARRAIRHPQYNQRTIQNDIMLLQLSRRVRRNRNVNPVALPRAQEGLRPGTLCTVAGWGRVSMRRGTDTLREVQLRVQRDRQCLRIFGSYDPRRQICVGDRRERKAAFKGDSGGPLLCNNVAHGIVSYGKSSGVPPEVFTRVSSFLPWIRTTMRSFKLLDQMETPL

[2] = molecular target: Insulin receptor (Rattus norvegicus, UniProt P15127); type: cell membranes, Wistar, Liver, Membrane; note: in other assays of this panel Not Active means under 50% inhibition at 10 µM
Chain of Insulin receptor (P15127 27-759 limits assumed): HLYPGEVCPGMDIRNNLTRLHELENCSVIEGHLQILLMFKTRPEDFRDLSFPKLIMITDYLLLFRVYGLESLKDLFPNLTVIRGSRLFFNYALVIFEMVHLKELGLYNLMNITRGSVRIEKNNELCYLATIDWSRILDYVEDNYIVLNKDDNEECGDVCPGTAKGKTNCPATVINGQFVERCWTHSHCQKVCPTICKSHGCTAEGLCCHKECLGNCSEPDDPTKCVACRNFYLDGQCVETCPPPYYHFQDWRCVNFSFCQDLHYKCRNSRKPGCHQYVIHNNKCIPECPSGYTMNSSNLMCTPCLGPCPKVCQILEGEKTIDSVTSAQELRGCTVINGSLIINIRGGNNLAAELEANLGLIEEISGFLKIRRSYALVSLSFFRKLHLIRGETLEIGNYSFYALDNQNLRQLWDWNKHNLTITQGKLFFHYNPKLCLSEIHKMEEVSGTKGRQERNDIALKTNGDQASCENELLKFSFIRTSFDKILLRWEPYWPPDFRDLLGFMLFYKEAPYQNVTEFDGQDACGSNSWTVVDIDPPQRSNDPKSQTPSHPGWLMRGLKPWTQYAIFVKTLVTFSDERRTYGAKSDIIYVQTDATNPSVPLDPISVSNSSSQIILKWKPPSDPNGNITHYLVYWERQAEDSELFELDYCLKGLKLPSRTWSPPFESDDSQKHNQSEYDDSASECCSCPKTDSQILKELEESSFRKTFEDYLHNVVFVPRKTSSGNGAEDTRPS
Chain of Insulin receptor (P15127 764-1383 limits assumed): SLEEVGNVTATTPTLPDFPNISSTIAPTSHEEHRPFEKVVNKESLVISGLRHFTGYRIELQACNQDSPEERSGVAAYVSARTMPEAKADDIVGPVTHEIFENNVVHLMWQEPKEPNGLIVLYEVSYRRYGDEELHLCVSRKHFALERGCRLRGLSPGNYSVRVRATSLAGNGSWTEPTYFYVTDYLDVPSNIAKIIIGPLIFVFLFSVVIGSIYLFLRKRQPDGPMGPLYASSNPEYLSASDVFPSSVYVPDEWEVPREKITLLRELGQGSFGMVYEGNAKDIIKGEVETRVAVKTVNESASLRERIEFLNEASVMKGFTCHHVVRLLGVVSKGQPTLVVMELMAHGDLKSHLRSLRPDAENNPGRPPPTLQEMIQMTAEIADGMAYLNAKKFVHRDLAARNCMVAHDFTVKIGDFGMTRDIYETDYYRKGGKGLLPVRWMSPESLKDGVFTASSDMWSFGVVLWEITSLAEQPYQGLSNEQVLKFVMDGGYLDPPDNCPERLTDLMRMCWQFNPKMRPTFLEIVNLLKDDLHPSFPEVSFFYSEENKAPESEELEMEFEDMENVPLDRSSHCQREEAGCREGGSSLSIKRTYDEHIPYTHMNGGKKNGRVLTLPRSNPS

[3] = molecular target: Tyrosine-protein kinase Lck (Homo sapiens, UniProt P06239); experiment: DRUGMATRIX: Protein Tyrosine Kinase, LCK enzyme inhibition (substrate: Poly(Glu:Tyr)); type: cell-based, Insect cells; settings: Not Active = under 50% inhibition at 10 µM; for IC50: insect cells
Chain of Tyrosine-protein kinase Lck (P06239 whole entry): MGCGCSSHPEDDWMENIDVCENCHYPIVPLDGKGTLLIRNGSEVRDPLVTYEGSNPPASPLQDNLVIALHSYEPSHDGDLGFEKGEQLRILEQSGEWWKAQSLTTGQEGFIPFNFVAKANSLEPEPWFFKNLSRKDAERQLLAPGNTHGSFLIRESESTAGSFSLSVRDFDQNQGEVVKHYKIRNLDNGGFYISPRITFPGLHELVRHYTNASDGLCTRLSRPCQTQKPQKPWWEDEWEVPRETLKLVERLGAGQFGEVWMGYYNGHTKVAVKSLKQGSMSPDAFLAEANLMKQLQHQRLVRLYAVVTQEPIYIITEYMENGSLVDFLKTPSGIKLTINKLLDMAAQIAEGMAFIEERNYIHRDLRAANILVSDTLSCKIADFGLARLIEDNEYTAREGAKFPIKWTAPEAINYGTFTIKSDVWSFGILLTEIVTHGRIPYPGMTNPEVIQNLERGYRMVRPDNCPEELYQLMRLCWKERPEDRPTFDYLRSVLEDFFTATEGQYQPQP

[4] = molecular target: T2, 5-hydroxytryptamine receptor 2C (Homo sapiens, UniProt P28335); experiment: DRUGMATRIX: Serotonin (5-Hydroxytryptamine) 5-HT2C radioligand binding (ligand: [3H] Mesulergine); type: cell membranes, CHO-K1, Membrane; settings: Not Active = under 50% inhibition at 10 µM; for IC50: cho-k1; for pIC50: read-out: IC50; for pKi: read-out: Ki
T2 sequence (P28335 whole entry): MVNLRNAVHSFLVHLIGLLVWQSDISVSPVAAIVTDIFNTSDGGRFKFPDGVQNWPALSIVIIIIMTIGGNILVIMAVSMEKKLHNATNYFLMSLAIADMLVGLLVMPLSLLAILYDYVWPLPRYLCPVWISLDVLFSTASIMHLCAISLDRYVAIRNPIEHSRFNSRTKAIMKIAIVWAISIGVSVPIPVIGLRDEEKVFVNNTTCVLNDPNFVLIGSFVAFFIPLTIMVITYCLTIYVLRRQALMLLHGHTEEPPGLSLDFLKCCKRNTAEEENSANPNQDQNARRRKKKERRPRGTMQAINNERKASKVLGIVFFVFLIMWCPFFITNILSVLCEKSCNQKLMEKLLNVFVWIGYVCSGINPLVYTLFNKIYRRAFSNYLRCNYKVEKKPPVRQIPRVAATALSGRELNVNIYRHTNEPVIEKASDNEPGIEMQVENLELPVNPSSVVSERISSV

[5] = DRUGMATRIX: Potassium Channel [KATP] radioligand binding (ligand: [3H] Glyburide); type: cell membranes, Membrane; settings: hit-t15, Not Active = under 50% inhibition at 10 µM
[6] = molecular target: Protein kinase C alpha type (Homo sapiens, UniProt P17252); type: cell-based; settings: sf9;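 note: inhibition of PKCalpha kinase activity measured in an enzyme assay with histone as the phosphorylation substrate; in other assays of this panel Not Active means under 50% inhibition at 10 µM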

Structure (SMILES) | IC50 [1] | IC50 [2] | IC50 [3] | IC50 [4] | IC50 [5] | Ki [5] | IC50 [6] | pIC50 [4] | pKi [4] | pIC50 ([3]; read-out: IC50) | pIC50 ([5]; read-out: IC50) | pKi ([5]; read-out: Ki)
O=C(O)c1cc(=O)c2c(OCC(O)COc3cccc4oc(C(=O)O)cc(=O)c34)cccc2o1 [CROMOLYN] | Not Active | Not Active | Not Active | Not Active | Not Active | Not Active | Not Active | – | – | – | – | –
O=P1(N(CCCl)CCCl)NCCCO1 (configuration not stated) [CYCLOPHOSPHAMIDE ANHYDROUS] | Not Active | Not Active | Not Active | Not Active | Not Active | Not Active | Not Active | – | – | – | – | –
CC(=O)O[C@]1(C(C)=O)CC[C@H]2[C@@H]3C=C(Cl)C4=CC(=O)[C@@H]5C[C@@H]5[C@]4(C)[C@H]3CC[C@@]21C [CYPROTERONE ACETATE] | Not Active | Not Active | Not Active | Not Active | Not Active | Not Active | Not Active | – | – | – | – | –
Nc1nc(N)nc(NC2CC2)n1 [CYROMAZINE] | Not Active | Not Active | Not Active | Not Active | Not Active | Not Active | Not Active | – | – | – | – | –
C#C[C@]1(O)CC[C@H]2[C@@H]3CCC4=Cc5oncc5C[C@]4(C)[C@H]3CC[C@@]21C [DANAZOL] | Not Active | Not Active | Not Active | Not Active | Not Active | Not Active | Not Active | – | – | – | – | –
CCN[C@@H](C)Cc1cccc(C(F)(F)F)c1 [DEXFENFLURAMINE] | Not Active | Not Active | Not Active | Not Active | Not Active | Not Active | Not Active | – | – | – | – | –
C[C@H](C(=O)O)c1cccc(C(=O)c2ccccc2)c1 [DEXKETOPROFEN] | Not Active | Not Active | Not Active | Not Active | Not Active | Not Active | Not Active | – | – | – | – | –
CN1C(=O)CN=C(c2ccccc2)c2cc(Cl)ccc21 [DIAZEPAM] | Not Active | Not Active | Not Active | Not Active | Not Active | Not Active | Not Active | – | – | – | – | –
CN1C[C@H](C(=O)N[C@]2(C)O[C@@]3(O)[C@@H]4CCCN4C(=O)[C@H](Cc4ccccc4)N3C2=O)C[C@@H]2c3cccc4[nH]cc(c34)C[C@H]21 [DIHYDROERGOTAMINE] | Not Active | Not Active | Not Active | – | Not Active | Not Active | Not Active | 7.05 | 7.33 | – | – | –
Cc1c(N(C)CS(=O)(=O)[O-])c(=O)n(-c2ccccc2)n1C.[Na+] [DIPYRONE SODIUM] | Not Active | Not Active | Not Active | Not Active | Not Active | Not Active | Not Active | – | – | – | – | –
CC(CCc1ccc(O)cc1)NCCc1ccc(O)c(O)c1 (configuration not stated) [DOBUTAMINE] | Not Active | Not Active | – | Not Active | Not Active | Not Active | Not Active | – | – | 5.26 | – | –
CCn1cc(C(=O)O)c(=O)c2cc(F)c(N3CCNCC3)nc21 [ENOXACIN] | Not Active | Not Active | Not Active | Not Active | Not Active | Not Active | Not Active | – | – | – | – | –
CCC(=O)O[C@H]1[C@H](O[C@@H]2[C@@H](C)[C@H](O[C@H]3C[C@@](C)(OC)[C@@H](O)[C@H](C)O3)[C@@H](C)C(=O)O[C@H](CC)[C@@](C)(O)[C@H](O)[C@@H](C)C(=O)[C@H](C)C[C@@]2(C)O)O[C@H](C)C[C@@H]1N(C)C [ERYTHROMYCIN PROPIONATE] | Not Active | Not Active | Not Active | Not Active | Not Active | Not Active | Not Active | – | – | – | – | –
C=C(CC)C(=O)c1ccc(OCC(=O)O)c(Cl)c1Cl [ETHACRYNIC ACID] | Not Active | Not Active | Not Active | Not Active | Not Active | Not Active | Not Active | – | – | – | – | –
C#C[C@]1(O)CC[C@H]2[C@@H]3CCc4cc(O)ccc4[C@H]3CC[C@@]21C [ETHINYL ESTRADIOL] | Not Active | Not Active | Not Active | Not Active | Not Active | Not Active | Not Active | – | – | – | – | –
OCCO [ETHYLENE GLYCOL] | Not Active | Not Active | Not Active | Not Active | Not Active | Not Active | Not Active | – | – | – | – | –
CC(=O)OCC(CCn1cnc2cnc(N)nc21)COC(C)=O [FAMCICLOVIR] | Not Active | Not Active | Not Active | Not Active | Not Active | Not Active | Not Active | – | – | – | – | –
O=C(O)Cc1ccc(-c2ccccc2)cc1 [FELBINAC] | Not Active | Not Active | Not Active | Not Active | Not Active | Not Active | Not Active | – | – | – | – | –
CCOC(=O)C1=C(C)NC(C)=C(C(=O)OC)C1c1cccc(Cl)c1Cl (configuration not stated) [FELODIPINE] | Not Active | Not Active | Not Active | Not Active | Not Active | Not Active | Not Active | – | – | – | – | –
CC(C(=O)O)c1ccc(-c2ccccc2)c(F)c1 (configuration not stated) [FLURBIPROFEN] | Not Active | Not Active | Not Active | Not Active | Not Active | Not Active | Not Active | – | – | – | – | –
Cc1cn[nH]c1 [FOMEPIZOLE] | Not Active | Not Active | Not Active | Not Active | Not Active | Not Active | Not Active | – | – | – | – | –
NC[C@@H]1O[C@H](O[C@H]2[C@@H](O)[C@H](O[C@@H]3[C@@H](O)[C@H](N)C[C@H](N)[C@H]3O[C@H]3O[C@H](CN)[C@@H](O)[C@H](O)[C@H]3N)O[C@@H]2CO)[C@H](N)[C@@H](O)[C@@H]1O [FRAMYCETIN] | Not Active | Not Active | Not Active | Not Active | Not Active | Not Active | Not Active | – | – | – | – | –
C[C@H]([C@](O)(Cn1cncn1)c1ccc(F)cc1F)S(C)(=O)=O [GENACONAZOLE] | Not Active | Not Active | Not Active | Not Active | Not Active | Not Active | Not Active | – | – | – | – | –
Cc1cnc(C(=O)NCCc2ccc(S(=O)(=O)NC(=O)NC3CCCCC3)cc2)cn1 [GLIPIZIDE] | Not Active | Not Active | Not Active | Not Active | – | – | Not Active | – | – | – | 6.40 | 7.35
Cc1c(F)c(N2CCNC(C)C2)cc2c1c(=O)c(C(=O)O)cn2C1CC1 (configuration not stated) [GREPAFLOXACIN] | Not Active | Not Active | Not Active | Not Active | Not Active | Not Active | Not Active | – | – | – | – | –
COc1ccccc1OCC(O)CO (configuration not stated) [GUAIFENESIN] | Not Active | Not Active | Not Active | Not Active | Not Active | Not Active | Not Active | – | – | – | – | –
N=C(N)N/N=C/c1c(Cl)cccc1Cl [GUANABENZ] | Not Active | Not Active | Not Active | – | Not Active | Not Active | Not Active | 6.69 | 6.97 | – | – | –
C[C@]12CCC(=O)C=C1CC[C@@H]1[C@@H]2[C@@H](O)C[C@@]2(C)[C@H]1CC[C@]2(O)C(=O)CO [HYDROCORTISONE] | Not Active | Not Active | Not Active | Not Active | Not Active | Not Active | Not Active | – | – | – | – | –
C/C=C\c1ccc(O)c(OC)c1 [ISOEUGENOL] | Not Active | Not Active | Not Active | Not Active | Not Active | Not Active | Not Active | – | – | – | – | –
NC[C@H]1O[C@H](O[C@H]2[C@H](O)[C@@H](O[C@H]3O[C@H](CO)[C@@H](O)[C@H](N)[C@H]3O)[C@H](N)C[C@@H]2N)[C@H](O)[C@@H](O)[C@@H]1O [KANAMYCIN] | Not Active | Not Active | Not Active | Not Active | Not Active | Not Active | Not Active | – | – | – | – | –
